Data as given in ChEMBL document CHEMBL5137013 (Eur J Med Chem, 2022).
Calls of active or inactive are those of the source. The rule behind the calls is not given here.

Experiments:
Tubulin (Homo sapiens) [1] = target: T1, Tubulin (Homo sapiens) (UniProt P68371+Q9H4B7+P0DPH7+P68366+Q13509+Q71U36+P04350+Q3ZCM7+P07437+P68363+Q9BQE3+Q6PEY2+Q13885+Q9BVA1+Q9BUF5); assay: Inhibition of tubulin polymerization in human HT-29 cells assessed as up regulation of detyrosinated-alpha-tubulin expression at 25 to 100 nM measured after 24 hrs by Western blot analysis; format: cell-based; conditions: dose 25-100 nM
HT-29 [2] = assay: Induction of apoptosis in human HT-29 cells assessed as increase in cleaved caspase-9 expression at 25 to 100 nM measured after 24 hrs by Western blot analysis; format: functional, cell-based; conditions: dose 25-100 nM
HT-29 [3] = assay: Antitumor activity against human HT-29 cells xenografted in BALB/c nude mouse assessed as reduction in tumor weight at 10 mg/kg, ip administered as 2 days interval for 3 weeks and measured 3 weeks post-initial dosing relative to control; format: functional; design: scale not given: the % may be the effect or the level left
HT-29 [4] = assay: Cell cycle arrest in human HT-29 cells assessed as effect on cdc25 expression at 25 to 100 nM measured after 24 hrs by Western blot analysis; format: functional, cell-based; conditions: dose 25-100 nM
[5] = Toxicity in human HT-29 cells xenografted BALB/c nude mouse assessed as body weight loss at 5 to 10 mg/kg, ip administered as 2 days interval for 3 weeks and measured 3 times a week during compound dosing; format: organism-based; conditions: in vivo, 504 h, dose 5-10 mg/kg
HT-29 [6] = assay: Induction of ROS generation in human HT-29 cells measured after 24 hrs by DCFH-DA dye based confocal laser scanning microscopy; format: functional, cell-based; conditions: dose 25-100 nM, DDE = dose-dependent effect
HT-29 [7] = assay: Induction of apoptosis in human HT-29 cells assessed as increase in cleaved caspase-3 expression at 25 to 100 nM measured after 24 hrs by Western blot analysis; format: functional, cell-based; conditions: dose 25-100 nM
HT-29 [8] = assay: Induction of mitochondrial dysfunction in human HT-29 cells assessed as reduction in red fluorescence intensity measured after 24 hrs by JC-1 staining based JC-1 dye based confocal laser scanning microscopy; format: functional, cell-based; conditions: dose 25-100 nM, DDE = dose-dependent effect
Tubulin (Homo sapiens) [9] = target: T1, Tubulin (Homo sapiens); assay: Induction of microtubule disruption in human HT-29 cells measured after 6 hrs by immunofluorescence assay; format: cell-based; conditions: dose 25-100 nM, DDE = dose-dependent effect
MCF7 = assay: Cytotoxicity against human MCF7 cells assessed as reduction in cell viability measured after 24 hrs by MTT assay; conditions: MCF7, 24 h
HUVEC = assay: Antiangiogenic activity in HUVEC assessed as inhibition of tube formation at 12.5 to 50 nM incubated for 24 hrs by matrigel assay; format: functional, cell-based; conditions: Homo sapiens, dose 12.5-50 nM
HeLa = assay: Cytotoxicity against human HeLa cells assessed as reduction in cell viability measured after 24 hrs by MTT assay; format: functional, cell-based
HT-29 [10] = assay: Inhibition of colony formation in human HT-29 cells at 100 nM measured after 24 hrs by crystal violet staining based assay; format: functional
A549 [11] = assay: Cytotoxicity against human A549 cells assessed as reduction in cell viability measured after 24 hrs by MTT assay; conditions: A549, 24 h
HT-29 [12] = assay: Induction of apoptosis in human HT-29 cells assessed as increase in cleaved PARP expression at 25 to 100 nM measured after 24 hrs by Western blot analysis; format: functional, cell-based; conditions: dose 25-100 nM
A549 [13] = assay: Antimigratory activity against human A549 cells assessed as reduction in scratch wound recovery at 60 nM measured after 24 hrs by scratch wound healing assay relative to control; format: functional; design: scale not given: the % may be the effect or the level left
[14] = AUC in Sprague-Dawley rat at 10 mg/kg, iv by HPLC-MS/MS analysis; format: ADME, organism-based; design: dose 10 mg/kg, route iv; conditions: in vivo

With `COC(=O)c1cc2c(cc1Nc1cc(OC)c(OC)c(OC)c1)OCCO2` the inhibition (Tubulin (Homo sapiens) [1]) was “Active”, the Activity (HT-29 [2]) was “Active” and the Activity (HT-29 [3]) was 75.5%. The Activity (HT-29 [4]) was “Active”, the Activity [5] was “Non-Toxic” and the Activity (HT-29 [6]) was “Dde”. For the same molecule, the Activity (HT-29 [7]) was “Active”, the Activity (HT-29 [8]) was “Dde” and the Activity (Tubulin (Homo sapiens) [9]) was “Dde”. For the same molecule, the IC50 (MCF7) was 140 nM, the inhibition (HUVEC) was “Active” and the IC50 (HeLa) was 35 nM. The inhibition at 0.1 µM (HT-29 [10]) was 100%, the IC50 (A549 [11]) was 240 nM and the Activity (HT-29 [12]) was “Active”. The Activity (A549 [13]) was 85.2% and the AUC [14] was 5670 µg/L.hr.
